Source: the supplement of paper PMC10307832

Tests used:
Test in all cases: relative viability (nuclei count vs DMSO), 5 days (fraction); higher = more cells survive
SK-MES-1 = system: SK-MES-1
Outline: (§1)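 Lung cancer cell lines were pin-tool dosed in 1536-well plates on the day after seeding, with either a lone drug or a fixed anchor-drug dose plus five library-drug doses (not always all listed) in √10 steps. Nuclei were counted on 4× images after 5 days. Relative viability is the ratio of treated-well to vehicle-well nuclei counts, with each value a median of duplicate plates.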

NCI-H520 = system: NCI-H520
Outline: as §1

NCI-H2170 = system: NCI-H2170
Outline: as §1

NCI-H1975 = system: NCI-H1975
Outline: as §1

EKVX = system: EKVX
Outline: as §1

NCI-H1666 = system: NCI-H1666
Outline: as §1

SW 900 = system: SW 900
Outline: as §1

LOU-NH91 = system: LOU-NH91
Outline: as §1

EMC-BAC-2 = system: EMC-BAC-2
Outline: as §1

PC-3 [JPC-3] = system: PC-3 [JPC-3]
Outline: as §1

NCI-H441 = system: NCI-H441
Outline: as §1

NCI-H1755 = system: NCI-H1755
Outline: as §1

NCI-H1734 = system: NCI-H1734
Outline: as §1

H3255 = system: H3255
Outline: as §1

HCC-366 = system: HCC-366
Outline: as §1

ChaGo-K-1 = system: ChaGo-K-1
Outline: as §1

LK-2 = system: LK-2
Outline: as §1

NCI-H596 = system: NCI-H596
Outline: as §1

A-427 = system: A-427
Outline: as §1

NCI-H23 = system: NCI-H23
Outline: as §1

COR-L 105 = system: COR-L 105
Outline: as §1

O=c1cc(-c2cccc3c2Sc2ccccc2S3)oc(N2CCOCC2)c1 + Nc1ncn([C@H]2C[C@H](O)[C@@H](CO)O2)c(=O)n1 [Decitabine] (partner 2 µM)
relative viability (SK-MES-1; first compound 0.08 µM): 0.337 | relative viability (SK-MES-1; first compound 0.253 µM): 0.406 | relative viability (SK-MES-1; first compound 0.8 µM): 0.352 | relative viability (SK-MES-1; first compound 2.53 µM): 0.458 | relative viability (SK-MES-1; first compound 8 µM): 0.375 | relative viability (NCI-H520; first compound 0.08 µM): 0.518 | relative viability (NCI-H520; first compound 0.253 µM): 0.623 | relative viability (NCI-H520; first compound 0.8 µM): 0.577 | relative viability (NCI-H520; first compound 2.53 µM): 0.499 | relative viability (NCI-H520; first compound 8 µM): 0.548 | relative viability (NCI-H2170; first compound 0.08 µM): 0.439 | relative viability (NCI-H2170; first compound 0.253 µM): 0.524 | relative viability (NCI-H2170; first compound 0.8 µM): 0.48 | relative viability (NCI-H2170; first compound 2.53 µM): 0.424 | relative viability (NCI-H2170; first compound 8 µM): 0.465 | relative viability (NCI-H1975; first compound 0.08 µM): 0.366 | relative viability (NCI-H1975; first compound 0.253 µM): 0.36 | relative viability (NCI-H1975; first compound 0.8 µM): 0.348 | relative viability (NCI-H1975; first compound 2.53 µM): 0.38 | relative viability (NCI-H1975; first compound 8 µM): 0.381 | relative viability (EKVX; first compound 0.08 µM): 0.431 | relative viability (EKVX; first compound 0.253 µM): 0.34 | relative viability (EKVX; first compound 0.8 µM): 0.371 | relative viability (EKVX; first compound 2.53 µM): 0.37 | relative viability (EKVX; first compound 8 µM): 0.349 | relative viability (NCI-H1666; first compound 0.08 µM): 0.664 | relative viability (NCI-H1666; first compound 0.253 µM): 0.799 | relative viability (NCI-H1666; first compound 0.8 µM): 0.706 | relative viability (NCI-H1666; first compound 2.53 µM): 0.678 | relative viability (NCI-H1666; first compound 8 µM): 0.762 | relative viability (SW 900; first compound 0.253 µM): 0.453 | relative viability (SW 900; first compound 0.8 µM): 0.414 | relative viability (SW 900; first compound 2.53 µM): 0.428 | relative viability (SW 900; first compound 8 µM): 0.433 | relative viability (LOU-NH91; first compound 0.08 µM): 0.777 | relative viability (LOU-NH91; first compound 0.253 µM): 0.894 | relative viability (LOU-NH91; first compound 0.8 µM): 0.784 | relative viability (LOU-NH91; first compound 2.53 µM): 0.777 | relative viability (LOU-NH91; first compound 8 µM): 0.844 | relative viability (EMC-BAC-2; first compound 0.08 µM): 0.91 | relative viability (EMC-BAC-2; first compound 0.253 µM): 1.1 | relative viability (EMC-BAC-2; first compound 0.8 µM): 1.01 | relative viability (EMC-BAC-2; first compound 2.53 µM): 1.04 | relative viability (EMC-BAC-2; first compound 8 µM): 1.12 | relative viability (PC-3 [JPC-3]; first compound 0.08 µM): 0.733 | relative viability (PC-3 [JPC-3]; first compound 0.253 µM): 0.791 | relative viability (PC-3 [JPC-3]; first compound 0.8 µM): 0.838 | relative viability (PC-3 [JPC-3]; first compound 2.53 µM): 0.79 | relative viability (PC-3 [JPC-3]; first compound 8 µM): 0.884 | relative viability (NCI-H441; first compound 0.08 µM): 0.221 | relative viability (NCI-H441; first compound 0.253 µM): 0.232 | relative viability (NCI-H441; first compound 0.8 µM): 0.223 | relative viability (NCI-H441; first compound 2.53 µM): 0.257 | relative viability (NCI-H441; first compound 8 µM): 0.265 | relative viability (NCI-H1755; first compound 0.08 µM): 0.716 | relative viability (NCI-H1755; first compound 0.253 µM): 0.792 | relative viability (NCI-H1755; first compound 0.8 µM): 0.762 | relative viability (NCI-H1755; first compound 2.53 µM): 0.688 | relative viability (NCI-H1755; first compound 8 µM): 0.79 | relative viability (NCI-H1734; first compound 0.08 µM): 0.452 | relative viability (NCI-H1734; first compound 0.253 µM): 0.574 | relative viability (NCI-H1734; first compound 0.8 µM): 0.528 | relative viability (NCI-H1734; first compound 8 µM): 0.512 | relative viability (H3255; first compound 0.08 µM): 0.653 | relative viability (H3255; first compound 0.253 µM): 0.68 | relative viability (H3255; first compound 0.8 µM): 0.631 | relative viability (H3255; first compound 2.53 µM): 0.558 | relative viability (H3255; first compound 8 µM): 0.689 | relative viability (HCC-366; first compound 0.08 µM): 0.324 | relative viability (HCC-366; first compound 0.253 µM): 0.486 | relative viability (HCC-366; first compound 0.8 µM): 0.363 | relative viability (HCC-366; first compound 2.53 µM): 0.273 | relative viability (HCC-366; first compound 8 µM): 0.33 | relative viability (ChaGo-K-1; first compound 0.08 µM): 0.542 | relative viability (ChaGo-K-1; first compound 0.253 µM): 0.555 | relative viability (ChaGo-K-1; first compound 0.8 µM): 0.541 | relative viability (ChaGo-K-1; first compound 2.53 µM): 0.51 | relative viability (ChaGo-K-1; first compound 8 µM): 0.555 | relative viability (LK-2; first compound 0.08 µM): 0.245 | relative viability (LK-2; first compound 0.253 µM): 0.341 | relative viability (LK-2; first compound 0.8 µM): 0.244 | relative viability (LK-2; first compound 2.53 µM): 0.255 | relative viability (LK-2; first compound 8 µM): 0.335 | relative viability (NCI-H596; first compound 0.08 µM): 0.833 | relative viability (NCI-H596; first compound 0.253 µM): 0.951 | relative viability (NCI-H596; first compound 0.8 µM): 0.989 | relative viability (NCI-H596; first compound 2.53 µM): 0.997 | relative viability (NCI-H596; first compound 8 µM): 0.996 | relative viability (A-427; first compound 0.08 µM): 0.448 | relative viability (A-427; first compound 0.253 µM): 0.6 | relative viability (A-427; first compound 0.8 µM): 0.547 | relative viability (A-427; first compound 2.53 µM): 0.573 | relative viability (A-427; first compound 8 µM): 0.548 | relative viability (NCI-H23; first compound 0.08 µM): 0.274 | relative viability (NCI-H23; first compound 0.253 µM): 0.314 | relative viability (NCI-H23; first compound 0.8 µM): 0.297 | relative viability (NCI-H23; first compound 2.53 µM): 0.264 | relative viability (NCI-H23; first compound 8 µM): 0.293 | relative viability (COR-L 105; first compound 0.08 µM): 0.603 | relative viability (COR-L 105; first compound 0.253 µM): 0.568 | relative viability (COR-L 105; first compound 0.8 µM): 0.583 | relative viability (COR-L 105; first compound 2.53 µM): 0.612 | relative viability (COR-L 105; first compound 8 µM): 0.74
